From patent US12391680B2, “Compounds and compositions for the treatment of cystic fibrosis” (FONDAZIONE ISTITUTO ITALIANO DI TECNOLOGIA, priority 2019, dated 2025)

Tests used:
Type in all cases: cell-based
[1] = molecular target: mutant CFTR (Homo sapiens, UniProt P13569); test: Fluorescence assay for CFTR activity (halide-sensitive YFP, HS-YFP); settings: CFBE41o- and FRT cells with stable expression of mutant CFTR
Method: Mutant CFTR activity was determined with the functional assay based on the halide-sensitive yellow fluorescent protein, HS—YFP (Galietta et al., FEBS Lett 499:220-224, 2001). CFBE41o- and FRT cells with stable expression of mutant CFTR and HS—YFP were plated on clear-bottom 96-well black microplates (Code 3603, Corning Life Sciences) at a density of 50,000 cells/well and kept at 37° C. in 5% CO2 for 24 hours.
For the corrector assay, cells were treated for further 24 hours with test compounds, vehicle (DMSO), or the positive control VX-809. After treatment, the culture medium was removed and cells in each well were stimulated for 30 min at 37° C. with 60 μL PBS (containing 137 mM NaCl, 2.7 mM KCl, 8.1 mM Na2HPO4, 1.5 mM KH2PO4, 1 mM CaCl2, and 0.5 mM MgCl2) plus forskolin (20 μM) and genistein (50 μM).
For determination of potentiator activity on F508del-CFTR, cells were incubated for 24 hours at 27° C. to allow trafficking of the mutant protein to plasma membrane. Cells were then stimulated with for 30 min with PBS containing forskolin (20 μM) plus the compound to be tested at the desired concentration. For determination of potentiator activity on G551D-CFTR or G1349D-CFTR, cells were directly stimulated with forskolin plus test compound without previous incubation at low temperature. At the time of assay, microplates carrying CFBE41o- or FRT cells were transferred to microplate readers (BMG Labtech) equipped with high-quality excitation (HQ500/20×: 500±10 nm) and emission (HQ535/30M: 535±15 nm) filters for YFP (Chroma Technology). The assay consisted of a continuous 14 s fluorescence reading with 2 s before and 12 s after injection of an iodide-containing solution (165 μL of a modified PBS containing I^− instead of Cl^−; final I^− concentration in the well: 100 mM). Data were normalized to the initial background-subtracted fluorescence. Enhanced CFTR activity, induced by correctors and/or potentiators, results in accelerated I^− influx that in turn causes faster HS—YFP quenching (Pedemonte et al., Mol Pharmacol 68:1736-1746, 2005; Pedemonte et al., J Clin Invest 115:2564-2571, […]). To determine fluorescence quenching rate associated with I^− influx, the final 10 s of data for each well were fitted with an exponential function to extrapolate initial slope (dF/dt).
EC50 obtained are illustrated in Table 1 wherein+: EC50>2 μM; ++: 1.0 μM <EC50<2 μM; +++: EC50<1 μM.

[2] = molecular target: T1, F508del-CFTR (Homo sapiens, UniProt P13569, DEL508-508); test: Short-circuit current recordings on human bronchial epithelial cells from CF patients (F508del/F508del); set-up: Human bronchial epithelial (HBE) cells obtained from CF patients (F508del/F508del genotype); endogenous in cells; host or cells: primary human bronchial epithelial cells from CF patients, F508del/F508del; settings: HBE cells F508del/F508del, 24 hrs treatment, CPT-cAMP plus VX-770 minus CFTRinh-172
Method: Human bronchial epithelial (HBE) cells obtained from CF patients (F508del/F508del genotype) were plated on Snapwell inserts (Code 3801, Corning Life Sciences) at a density of 500,000 cells per insert. Cells were cultured for two weeks in a differentiating medium whose compositions has been previously described (Scudieri et al., J Physiol 590:6141-6155, 2012). For the first week, the medium was kept on both apical and basolateral sides of inserts (submerged condition). For the second week, the apical medium was removed (air-liquid condition, ALC). To test the activity of correctors, cells were treated for 24 hrs with compounds dissolved in the basolateral medium. After treatment, Snapwell inserts carrying differentiated bronchial epithelia were mounted in a vertical chamber resembling an Ussing system with internal fluid circulation. Both apical and basolateral hemichambers were filled with 5 mL of a Krebs bicarbonate solution containing (in mM): 126 NaCl, 0.38 KH2PO4, 2.13 K2HPO4, 1 MgSO4, 1 CaCl2, 24 NaHCO3, and 10 glucose. Both sides were continuously bubbled with a gas mixture containing 5% CO2-95% air and the temperature of the solution was kept at 37° C. The transepithelial voltage was short-circuited with a voltage-clamp (DVC-1000, World Precision Instruments) connected to the apical and basolateral chambers via Ag/AgCl electrodes and agar bridges (1 M KCl in 1% agar). The offset between voltage electrodes and the fluid resistance were canceled before experiments. The short-circuit current was recorded with a PowerLab 4/25 (ADInstruments) analogical to digital converter connected to a Macintosh computer. […] The difference between the current measured with CPT-cAMP plus potentiator and the current remaining after CFTRinh-172 treatment (ΔICFTR) was taken as the parameter reflecting F508del-CFTR expression in the apical membrane.
Activities of selected compounds on HBE cells (expressed as ΔICFTR) are illustrated in Table 3 wherein+: ΔICFTR<2.0 μA; ++: 2.0 μA<ΔICFTR<3.0 μA; +++: ΔICFTR >3.0 μA.

[3] = molecular target: T1, F508del-CFTR; test: Transepithelial electrical conductance (TEEC) in FRT cells expressing F508del-CFTR; set-up: expressed in transfected cells; host or cells: FRT cells; settings: tested at 5.0 μM, 24 hrs incubation
Method: FRT cells expressing F508del-CFTR were plated on HTS Transwell-24 well permeable supports (Code 3379, Corning Life Sciences) at a density of 200,000 cells/well. After six days, cells were incubated for 24 hrs with test correctors, vehicle, or VX-809. Compounds were dissolved in both basolateral (800 μL) and apical (300 μL) culture medium. After treatment, the culture medium was removed and replaced on both sides with a saline solution containing (in mM): 130 NaCl, 2.7 KCl, 1.5 KH2PO4, 1 CaCl2, 0.5 MgCl2, 10 glucose, 10 Na-Hepes (pH 7.4). The basolateral and apical side received 800 μL and 100 μL, respectively. The 24-well tray with cells was placed on a block heater (SBH 130D, Stuart) to keep the temperature at 37° C. during the entire experiment. After 10 min, the basal transepithelial electrical resistance (TEER) across each layer of FRT cells was measured with a STX100C electrode pair connected to an EVOM2 voltohmeter (World Precision Instruments). To stimulate F508del-CFTR, each well received (apical side) 50 μL of saline solution containing 60 μM forskolin and 150 μM genistein (final concentrations: 20 μM forskolin, 50 μM genistein). Forskolin was also pipetted in the basolateral medium to obtain the 20 μM concentration. After 10 min TEER was measured again in each well. To block F508del-CFTR function, the inhibitor PPQ-102 was used at the final concentration of 30 μM. To achieve the desired concentration, 75 μL of the apical solution in each well was replaced with an equal volume of saline solution containing 20 μM forskolin, 50 μM genistein, and 60 μM PPQ-102. After further 10 min, the transepithelial electrical resistance was measured. All values of TEER were converted to transepithelial electrical conductance (TEEC) using the formula TEEC=1/TEER. The parameter to indicate activity of F508del-CFTR in each well (ATEEC) was calculated from the difference in TEEC measured after maximal stimulation of F508del-CFTR with forskolin and genistein and after block with PPQ-102.
Corrector activities obtained on selected compounds tested at 5.0 μM (expressed as ΔTEEC values) are illustrated in Table 2, wherein+: ΔTEEC<2000 μS; ++: 2000 μS <ΔTEEC<3000ρS; +++: ΔTEEC>3000 μS.

T1 sequence (P13569 with tags, fused parts or gaps DEL508-508): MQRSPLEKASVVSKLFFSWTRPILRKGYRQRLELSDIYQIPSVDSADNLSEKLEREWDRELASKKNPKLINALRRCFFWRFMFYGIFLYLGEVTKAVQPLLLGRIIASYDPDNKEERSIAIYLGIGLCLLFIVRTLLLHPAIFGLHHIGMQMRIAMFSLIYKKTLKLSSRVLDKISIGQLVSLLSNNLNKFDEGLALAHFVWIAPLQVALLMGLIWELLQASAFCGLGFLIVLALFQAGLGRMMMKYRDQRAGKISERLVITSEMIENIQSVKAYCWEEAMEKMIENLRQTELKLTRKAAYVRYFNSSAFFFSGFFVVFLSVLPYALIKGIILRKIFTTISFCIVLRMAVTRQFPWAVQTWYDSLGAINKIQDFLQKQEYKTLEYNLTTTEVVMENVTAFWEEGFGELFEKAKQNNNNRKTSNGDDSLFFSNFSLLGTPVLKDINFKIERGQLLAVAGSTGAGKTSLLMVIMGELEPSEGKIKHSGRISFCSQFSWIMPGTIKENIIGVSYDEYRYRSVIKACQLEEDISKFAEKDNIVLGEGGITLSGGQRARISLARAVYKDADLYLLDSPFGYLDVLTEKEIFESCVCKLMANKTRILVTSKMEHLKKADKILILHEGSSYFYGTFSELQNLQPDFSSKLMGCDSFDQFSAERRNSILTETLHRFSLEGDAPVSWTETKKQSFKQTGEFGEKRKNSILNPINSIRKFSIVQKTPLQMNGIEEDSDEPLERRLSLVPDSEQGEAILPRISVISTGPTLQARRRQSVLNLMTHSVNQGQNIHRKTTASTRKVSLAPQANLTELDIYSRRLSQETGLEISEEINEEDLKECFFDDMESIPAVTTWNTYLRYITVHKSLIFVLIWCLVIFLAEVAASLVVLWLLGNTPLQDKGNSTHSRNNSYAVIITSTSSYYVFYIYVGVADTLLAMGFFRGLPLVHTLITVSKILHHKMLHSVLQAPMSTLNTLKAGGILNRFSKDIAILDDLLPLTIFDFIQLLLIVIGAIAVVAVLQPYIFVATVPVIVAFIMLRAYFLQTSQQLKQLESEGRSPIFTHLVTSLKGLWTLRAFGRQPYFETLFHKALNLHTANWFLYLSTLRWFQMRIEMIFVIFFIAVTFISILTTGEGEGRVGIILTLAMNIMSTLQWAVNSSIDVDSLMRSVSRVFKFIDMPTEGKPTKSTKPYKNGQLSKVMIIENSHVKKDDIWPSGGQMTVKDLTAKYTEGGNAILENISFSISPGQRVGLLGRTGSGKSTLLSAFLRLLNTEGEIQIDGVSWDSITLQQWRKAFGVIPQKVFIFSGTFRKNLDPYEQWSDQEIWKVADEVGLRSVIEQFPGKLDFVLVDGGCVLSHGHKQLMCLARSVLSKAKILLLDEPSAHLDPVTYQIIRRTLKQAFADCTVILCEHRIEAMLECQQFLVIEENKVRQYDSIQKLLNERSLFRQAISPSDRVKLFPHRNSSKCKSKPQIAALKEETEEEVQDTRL
Chain of mutant CFTR (P13569 with tags, fused parts or gaps DEL508-508): as above

Row | SMILES | EC50 [1] | activity (ΔICFTR) [2] | activity (corrector activity expressed as ΔTEEC) [3]
1 | NC(=O)c1sc2ccccc2c1C1CN(S(=O)(=O)c2ccc3c(c2)OCCO3)CCO1 (racemic) [compound 018, rac-3-[(4-(2,3-dihydro-1,4-benzodioxin-6-ylsulfonyl)morpholin-2-yl]benzothiophene-2-carboxamide] | < 1 µM | ++ (2.0 μA<ΔICFTR<3.0 μA) | 
2 | NC(=O)c1sc2ccccc2c1C1CN(S(=O)(=O)c2ccc(OC(F)(F)F)cc2)CCO1 (racemic) [compound 039, rac-3-[4-[4-(trifluoromethoxy)phenyl]sulfonylmorpholin-2-yl]benzothiophene-2-carboxamide] | < 1 µM |  | ++ (2000 μS <ΔTEEC<3000ρS)
3 | Cc1cc(S(=O)(=O)N2CCOC(c3c(C(N)=O)sc4ccccc34)C2)ccc1C(F)(F)F (racemic) [compound 044, rac-3-[4-[3-methyl-4-(trifluoromethyl)phenyl]sulfonylmorpholin-2-yl]benzothiophene-2-carboxamide] | 1 to 2 µM | ++ (2.0 μA<ΔICFTR<3.0 μA) | 
4 | Cc1cc(S(=O)(=O)N2CCO[C@H](c3c(C(N)=O)sc4ccccc34)C2)ccc1F (single isomer, unassigned) [compound 013] | > 2 µM | ++ (2.0 μA<ΔICFTR<3.0 μA) | 
5 | NC(=O)c1sc2ccccc2c1[C@@H]1CN(S(=O)(=O)c2ccc(C(F)(F)F)cc2)CCO1 (single isomer, unassigned) [compound 042] | > 2 µM |  | + (ΔTEEC<2000 μS)
6 | NC(=O)c1sc2ccccc2c1[C@H]1CN(S(=O)(=O)c2ccc(C(F)(F)F)cc2)CCO1 (single isomer, unassigned) [compound 043] | < 1 µM |  | +++ (ΔTEEC>3000 μS)
7 | NC(=O)c1sc2ccccc2c1[C@H]1CN(S(=O)(=O)c2ccc(C(F)(F)F)c(F)c2)CCO1 (single isomer, unassigned) [compound 055] | > 2 µM |  | 
8 | NC(=O)c1sc2ccccc2c1C1CN(S(=O)(=O)c2ccc(C(F)(F)F)c(F)c2)CCO1 (single isomer, unassigned) [compound 056] | < 1 µM |  | 
9 | Cc1nc2ccc(S(=O)(=O)N3CCO[C@@H](c4c(C(N)=O)sc5ccccc45)C3)cc2o1 (single isomer, unassigned) [compound 070] | > 2 µM |  | 
10 | Cc1nc2ccc(S(=O)(=O)N3CCO[C@H](c4c(C(N)=O)sc5ccccc45)C3)cc2o1 (single isomer, unassigned) [compound 071] | < 1 µM | +++ (ΔICFTR >3.0 μA) | 
11 | Cc1ccc(S(=O)(=O)N2CCO[C@@H](c3c(C(N)=O)sc4ccccc34)C2)cc1F (single isomer, unassigned) [compound 072] | > 2 µM |  | 
12 | Cc1ccc(S(=O)(=O)N2CCO[C@H](c3c(C(N)=O)sc4ccccc34)C2)cc1F (single isomer, unassigned) [compound 073] | < 1 µM |  | 
13 | CNC(=O)c1sc2ccccc2c1C1CN(S(=O)(=O)c2c(C)noc2C)CCO1 (centres unmarked) [compound 075, 3-[4-(3,5-dimethyl-isoxazole-4-sulfonyl)-morpholin-2-yl]-benzo[b]thiophene-2-carboxylic acid methylamide] | > 2 µM |  | 
14 | CC(C)NC(=O)c1sc2ccccc2c1C1CN(S(=O)(=O)c2cnn(C)c2)CCO1 (centres unmarked) [compound 076, 3-[4-(1-methyl-1H-pyrazole-4-sulfonyl)-morpholin-2-yl]-benzo[b]thiophene-2-carboxylic acid isopropylamide] | > 2 µM |  | 
15 | CN(C)C(=O)c1sc2ccccc2c1C1CN(S(=O)(=O)C2CCCC2)CCO1 (centres unmarked) [compound 078, 3-[4-(cyclopentylsulfonyl)-2-morpholinyl]-N,N-dimethyl-1-benzothiophene-2-carboxamide] | > 2 µM |  | 
16 | Cc1c(S(=O)(=O)N2CCOC(c3c(C(=O)N(C)C)sc4ccccc34)C2)cnn1C (centres unmarked) [compound 079, 3-{4-[(1,5-dimethyl-1H-pyrazol-4-yl)sulfonyl]-2-morpholinyl}-N,N-dimethyl-1-benzothiophene-2-carboxamide] | > 2 µM |  | 
17 | O=C(NCCO)c1sc2ccccc2c1C1CN(S(=O)(=O)c2ccccc2)CCO1 (centres unmarked) [compound 080, N-(2-hydroxyethyl)-3-[4-(phenylsulfonyl)-2-morpholinyl]-1-benzothiophene-2-carboxamide] | > 2 µM |  | 
18 | CNC(=O)c1sc2ccccc2c1C1CN(S(=O)(=O)C2CCCC2)CCO1 (centres unmarked) [compound 081, 3-(4-cyclopentanesulfonyl-morpholin-2-yl)-benzo[b]thiophene-2-carboxylic acid methylamide] | > 2 µM |  | 
19 | Cc1n[nH]c(C)c1S(=O)(=O)N1CCOC(c2c(C(=O)N(C)C)sc3ccccc23)C1 (centres unmarked) [compound 083, 3-{4-[(3,5-dimethyl-1H-pyrazol-4-yl)sulfonyl]-2-morpholinyl}-N,N-dimethyl-1-benzothiophene-2-carboxamide] | > 2 µM |  | 
